Measurements published in US8026278B2, “Inhibitors of pyruvate kinase as therapeutic agents for cancer” (priority 2005, dated 2011).

What was measured:
[1] = biological target: T1, Pyruvate kinase isolated from rabbit muscle (Oryctolagus cuniculus, UniProt P11974); assay: Inhibition of pyruvate kinase (indirect assay quantifying ADP production); format: biochemical
T1 construct: Pyruvate kinase isolated from rabbit muscle; purchased Sigma-Aldrich; host or cells: rabbit muscle (tissue-derived enzyme)
Method: The compounds E-3-chlorophosphoenolpyruvate ditriethyl-ammonium salt (ECPDAT), Z-3-chlorophosphoenolpyruvate tritriethyl-ammonium salt (CPTP), phosphoenol-3-bromo-pyruvic acid mono-cyclohexyl ammonium salt (PBPA), 2-bromooxoethylphosphonic acid mono-cyclohexyl-ammonium salt (BOEPA) and 3-bromopyruvic acid (BrPyA) were tested for their efficiency at inhibiting pyruvate kinase. Pyruvate kinase isolated from rabbit muscle was purchased from Sigma-Aldrich. Pyruvate kinase was assayed indirectly by quantifying ADP production formed in the reaction ATP+pyruvate to ADP+phosphoenolpyruvate. Inhibitors were added to the reaction mixture immediately before the reaction was started by the addition of ATP.

[2] = test system: MCF7 (breast) cancer cell line; assay: MTT assay, inhibition of cell proliferation, MCF7; format: cell-based; details: MCF7, 72 hours
Method: (§1) The compounds of the invention were tested for their inhibition potential of cell proliferation. MCF7 (breast) and SF268 (glioma) cancer cell lines were incubated with different concentrations of the compounds and their viability was assessed using an MTT (3-(4,5-dimethylthiazol-2-yl)-2,5-diphenyltetrazolium bromide) assay. The MTT assay is well known in the art (see for example Slater et al., Biochim. Biophys. Acta 77 (1963) 383). The cells were incubated with a given inhibitor for 72 hours and assayed.

[3] = test system: SF268 (glioma) cancer cell line; assay: MTT assay, inhibition of cell proliferation, SF268; format: cell-based; details: SF268, 72 hours
Method: as §1

T1 sequence (P11974 whole entry): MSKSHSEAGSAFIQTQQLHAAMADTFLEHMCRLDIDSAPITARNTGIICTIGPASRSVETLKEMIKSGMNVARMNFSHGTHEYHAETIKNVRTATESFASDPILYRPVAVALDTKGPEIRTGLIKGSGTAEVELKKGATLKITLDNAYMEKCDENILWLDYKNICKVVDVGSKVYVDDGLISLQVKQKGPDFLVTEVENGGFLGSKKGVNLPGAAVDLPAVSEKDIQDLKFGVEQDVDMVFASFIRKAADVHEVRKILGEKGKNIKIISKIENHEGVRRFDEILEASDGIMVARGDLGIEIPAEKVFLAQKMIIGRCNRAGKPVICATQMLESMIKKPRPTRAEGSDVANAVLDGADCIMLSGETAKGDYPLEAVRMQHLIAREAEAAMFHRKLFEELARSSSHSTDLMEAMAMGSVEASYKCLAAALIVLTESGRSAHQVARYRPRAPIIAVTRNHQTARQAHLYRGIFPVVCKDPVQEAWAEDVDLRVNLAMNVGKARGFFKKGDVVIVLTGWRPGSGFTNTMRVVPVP

O=C(CBr)P(=O)(O)O [BOEPA]
inhibition at 0.1 µM [1]: 0% | inhibition at 1 µM [1]: 0% | inhibition at 10 µM [1]: 0% | Inhibition of cell proliferation [2]: inhibited cell proliferation | % (A-Blank relative to control) ([2]; 10 uM): 93.37% | A-Blank (Average-Blank) O.D. at 570 nm ([2]; 10 uM): 0.7642 O.D. | Average O.D. reading at 570 nm ([2]; 10 uM): 0.8518 O.D. | % (A-Blank relative to control) ([2]; 25 uM): 93.769% | A-Blank (Average-Blank) O.D. at 570 nm ([2]; 25 uM): 0.7675 O.D. | Average O.D. reading at 570 nm ([2]; 25 uM): 0.855 O.D. | % (A-Blank relative to control) ([2]; 50 uM): 91.142% | A-Blank (Average-Blank) O.D. at 570 nm ([2]; 50 uM): 0.746 O.D. | Average O.D. reading at 570 nm ([2]; 50 uM): 0.8335 O.D. | % (A-Blank relative to control) ([2]; 75 uM): 93.28% | A-Blank (Average-Blank) O.D. at 570 nm ([2]; 75 uM): 0.7635 O.D. | Average O.D. reading at 570 nm ([2]; 75 uM): 0.851 O.D. | % (A-Blank relative to control) ([2]; 100 uM): 91.57% | A-Blank (Average-Blank) O.D. at 570 nm ([2]; 100 uM): 0.7495 O.D. | Average O.D. reading at 570 nm ([2]; 100 uM): 0.837 O.D. | % (A-Blank relative to control) ([2]; 200 uM): 89.249% | A-Blank (Average-Blank) O.D. at 570 nm ([2]; 200 uM): 0.7305 O.D. | Average O.D. reading at 570 nm ([2]; 200 uM): 0.818 O.D. | % (A-Blank relative to control) ([2]; 300 uM): 56.2004% | A-Blank (Average-Blank) O.D. at 570 nm ([2]; 300 uM): 0.46 O.D. | Average O.D. reading at 570 nm ([2]; 300 uM): 0.5475 O.D. | % (A-Blank relative to control) ([2]; 500 uM): 36.68% | A-Blank (Average-Blank) O.D. at 570 nm ([2]; 500 uM): 0.3003 O.D. | Average O.D. reading at 570 nm ([2]; 500 uM): 0.3877 O.D. | Inhibition of cell proliferation [3]: inhibited cell proliferation | % (A-Blank relative to control) ([3]; 10 uM): 101.2806% | A-Blank (Average-Blank) O.D. at 570 nm ([3]; 10 uM): 0.692 O.D. | Average O.D. reading at 570 nm ([3]; 10 uM): 0.7792 O.D. | % (A-Blank relative to control) ([3]; 25 uM): 99.49% | A-Blank (Average-Blank) O.D. at 570 nm ([3]; 25 uM): 0.68 O.D. | Average O.D. reading at 570 nm ([3]; 25 uM): 0.767 O.D. | % (A-Blank relative to control) ([3]; 50 uM): 100.8% | A-Blank (Average-Blank) O.D. at 570 nm ([3]; 50 uM): 0.689 O.D. | Average O.D. reading at 570 nm ([3]; 50 uM): 0.776 O.D. | % (A-Blank relative to control) ([3]; 75 uM): 96.52% | A-Blank (Average-Blank) O.D. at 570 nm ([3]; 75 uM): 0.66 O.D. | Average O.D. reading at 570 nm ([3]; 75 uM): 0.747 O.D. | % (A-Blank relative to control) ([3]; 100 uM): 90.45% | A-Blank (Average-Blank) O.D. at 570 nm ([3]; 100 uM): 0.618 O.D. | Average O.D. reading at 570 nm ([3]; 100 uM): 0.705 O.D. | % (A-Blank relative to control) ([3]; 200 uM): 53.055% | A-Blank (Average-Blank) O.D. at 570 nm ([3]; 200 uM): 0.3625 O.D. | Average O.D. reading at 570 nm ([3]; 200 uM): 0.4498 O.D. | % (A-Blank relative to control) ([3]; 300 uM): 12.221% | A-Blank (Average-Blank) O.D. at 570 nm ([3]; 300 uM): 0.0835 O.D. | Average O.D. reading at 570 nm ([3]; 300 uM): 0.1708 O.D. | % (A-Blank relative to control) ([3]; 500 uM): 5.196% | A-Blank (Average-Blank) O.D. at 570 nm ([3]; 500 uM): 0.0355 O.D. | Average O.D. reading at 570 nm ([3]; 500 uM): 0.1227 O.D.

E-3-chlorophosphoenolpyruvate ditriethyl-ammonium salt [E-CPDA]
Inhibition of pyruvate kinase compared with BrPyA [1]: inhibited pyruvate kinase at lower concentrations than BrPyA | % Inhibition ([1]; Concentration 0.1 μM): 0% | % Inhibition ([1]; Concentration 1 μM): 10.9% | % Inhibition ([1]; Concentration 10 μM): 100% | Inhibition of cell proliferation [2]: inhibited cell proliferation | % (A-Blank relative to control) ([2]; 10 uM): 101.1% | A-Blank (Average-Blank) O.D. at 570 nm ([2]; 10 uM): 0.8245 O.D. | Average O.D. reading at 570 nm ([2]; 10 uM): 0.91 O.D. | % (A-Blank relative to control) ([2]; 25 uM): 97.333% | A-Blank (Average-Blank) O.D. at 570 nm ([2]; 25 uM): 0.7938 O.D. | Average O.D. reading at 570 nm ([2]; 25 uM): 0.8793 O.D. | % (A-Blank relative to control) ([2]; 50 uM): 86.726% | A-Blank (Average-Blank) O.D. at 570 nm ([2]; 50 uM): 0.7073 O.D. | Average O.D. reading at 570 nm ([2]; 50 uM): 0.7928 O.D. | % (A-Blank relative to control) ([2]; 75 uM): 78.449% | A-Blank (Average-Blank) O.D. at 570 nm ([2]; 75 uM): 0.6398 O.D. | Average O.D. reading at 570 nm ([2]; 75 uM): 0.7253 O.D. | % (A-Blank relative to control) ([2]; 100 uM): 72.072% | A-Blank (Average-Blank) O.D. at 570 nm ([2]; 100 uM): 0.5878 O.D. | Average O.D. reading at 570 nm ([2]; 100 uM): 0.6733 O.D. | % (A-Blank relative to control) ([2]; 200 uM): 68.486% | A-Blank (Average-Blank) O.D. at 570 nm ([2]; 200 uM): 0.5585 O.D. | Average O.D. reading at 570 nm ([2]; 200 uM): 0.644 O.D. | % (A-Blank relative to control) ([2]; 300 uM): 7.8786% | A-Blank (Average-Blank) O.D. at 570 nm ([2]; 300 uM): 0.06425 O.D. | Average O.D. reading at 570 nm ([2]; 300 uM): 0.1497 O.D. | % (A-Blank relative to control) ([2]; 500 uM): 2.759% | A-Blank (Average-Blank) O.D. at 570 nm ([2]; 500 uM): 0.0225 O.D. | Average O.D. reading at 570 nm ([2]; 500 uM): 0.108 O.D. | Inhibition of cell proliferation [3]: inhibited cell proliferation | % (A-Blank relative to control) ([3]; 10 uM): 80.1% | A-Blank (Average-Blank) O.D. at 570 nm ([3]; 10 uM): 0.672 O.D. | Average O.D. reading at 570 nm ([3]; 10 uM): 0.777 O.D. | % (A-Blank relative to control) ([3]; 25 uM): 80.453% | A-Blank (Average-Blank) O.D. at 570 nm ([3]; 25 uM): 0.675 O.D. | Average O.D. reading at 570 nm ([3]; 25 uM): 0.78 O.D. | % (A-Blank relative to control) ([3]; 50 uM): 64.243% | A-Blank (Average-Blank) O.D. at 570 nm ([3]; 50 uM): 0.539 O.D. | Average O.D. reading at 570 nm ([3]; 50 uM): 0.644 O.D. | % (A-Blank relative to control) ([3]; 75 uM): 44.458% | A-Blank (Average-Blank) O.D. at 570 nm ([3]; 75 uM): 0.373 O.D. | Average O.D. reading at 570 nm ([3]; 75 uM): 0.478 O.D. | % (A-Blank relative to control) ([3]; 100 uM): 30.513% | A-Blank (Average-Blank) O.D. at 570 nm ([3]; 100 uM): 0.256 O.D. | Average O.D. reading at 570 nm ([3]; 100 uM): 0.361 O.D. | % (A-Blank relative to control) ([3]; 200 uM): 13.23% | A-Blank (Average-Blank) O.D. at 570 nm ([3]; 200 uM): 0.111 O.D. | Average O.D. reading at 570 nm ([3]; 200 uM): 0.216 O.D. | % (A-Blank relative to control) ([3]; 300 uM): 6.555% | A-Blank (Average-Blank) O.D. at 570 nm ([3]; 300 uM): 0.055 O.D. | Average O.D. reading at 570 nm ([3]; 300 uM): 0.16 O.D. | % (A-Blank relative to control) ([3]; 500 uM): 3.099% | A-Blank (Average-Blank) O.D. at 570 nm ([3]; 500 uM): 0.026 O.D. | Average O.D. reading at 570 nm ([3]; 500 uM): 0.131 O.D.
